How the values were obtained:
[1] = assay type: physicochemical
From the text: Certain components of the formulation tend to be difficult to solubilize in conventional formulations. […] For topical compositions containing from about 0.05% by weight to about 0.1% by weight phosphatidyl serine and/or from about 0.05% by weight to about 0.1% by weight oleuropein, caprylyl methicone in an amount of from about 0.5% by weight to about 1% by weight of caprylyl methicone can solubilize these components in an anhydrous formulation.
In Formula 8B, the amount of palmitoyl tripeptide was increased to 3%, and phosphatidylserine (lipoid PS P 70) was added, along with oleuropein 80% at 0.025%. […] In Formula 9B, the concentration of heptyl undecylenate was lowered to 2.5%, caprylyl methicone was added to solubilize the Lipoind PS P 70, which was increased to 0.05%, and oleuropein 80% was increased to 0.05%. The viscosity for Formula 9B was approximately 5000 cPs.

MMP-2 = settings: wound chamber, vs control, cited from earlier work
VEGF = settings: pg VEGF/ng DNA as a function of GHK ng/mL; FIG. 11; cited from earlier work

Compound	solubility in heptyl undecylenate [1]	gelatinolytic activity (peaks area/μg protein), MMP-2 (MMP-2; from day 3, peaking at days 18-22, FIG. 9)	gelatinolytic activity (peaks area/μg protein) (MMP-2; from day 12, peaking at days 18-22, FIG. 10)	secretion of VEGF (VEGF)
C/C=C1/[C@H](O[C@@H]2O[C@H](CO)[C@@H](O)[C@H](O)[C@H]2O)OC=C(C(=O)OC)[C@H]1CC(=O)OCCc1ccc(O)c(O)c1 [oleuropein]	poor solubility			
glycine-histidine-lysine [GHK]		far greater degree than control	far greater degree than control	dose-dependently increases
phosphatidylserine [Lipoid PS P70]	poor solubility			

— US11426443B2, “Compositions and methods for invasive and non-invasive procedural skincare” (Alastin Skincare, Inc., priority 2016, dated 2022)
